A short description of experiment [1]: Induction of mitotic cell cycle arrest in potoroo PtK2 cells assessed as accumulation of cells at G1/G0 phase at 2 uM after 7 hrs by flow cytometry (Rvb= 15.5%). It counts as functional, Potorous tridactylus. For orientation: In flow cytometry, cells or beads pass a laser one at a time.
The nature of experiment [2]: Displacement of [3H]discodermolide from microtubule assessed as bound radioligand level at 20 uM treated after radioligand addition by competitive binding assay. (In general: Displacement assays read how much labelled ligand stays bound in the presence of the test substance.)
A short description of experiment [3]: Induction of mitotic cell cycle arrest in potoroo PtK2 cells assessed as accumulation of cells at G2+M phase at 2 uM treated for 7 hrs, washed followed by 48 hrs incubation by flow cytometry (Rvb= 22.3%). The experiment is classed as functional, Potorous tridactylus.

For the molecule `CC1=C[C@H]2[C@@H](O)[C@H](C)[C@@H](O)[C@@H]2[C@H]2[C@@H]3C4=C5O[C@](C)(CC[C@@H](OC4=O)[C@H]5C)[C@@H]3C[C@@H]12` [CYCLOSTREPTIN], the results for the Activity in experiment [1], in experiment [2] and in experiment [3] were 18%, 96% and 75%, respectively.

Values taken from ChEMBL document CHEMBL1240321, “Cyclostreptin binds covalently to microtubule pores and lumenal taxoid binding sites” (Nat Chem Biol, 2007).
